Legend:
[1] = target: Rho-associated protein kinase 1 (Homo sapiens, UniProt Q13464); assay: Inhibition of ROCK1 (unknown origin)
[2] = target: Rho-associated protein kinase 2 (Homo sapiens, UniProt O75116); assay: Inhibition of ROCK2 (unknown origin)
Homo sapiens = organism: Homo sapiens; assay: Selectivity ratio of IC50 for inhibition of ROCK2 (unknown origin) to IC50 for inhibition of ROCK1 (unknown origin)

Rho-associated protein kinase 1, sequence (Q13464 whole entry): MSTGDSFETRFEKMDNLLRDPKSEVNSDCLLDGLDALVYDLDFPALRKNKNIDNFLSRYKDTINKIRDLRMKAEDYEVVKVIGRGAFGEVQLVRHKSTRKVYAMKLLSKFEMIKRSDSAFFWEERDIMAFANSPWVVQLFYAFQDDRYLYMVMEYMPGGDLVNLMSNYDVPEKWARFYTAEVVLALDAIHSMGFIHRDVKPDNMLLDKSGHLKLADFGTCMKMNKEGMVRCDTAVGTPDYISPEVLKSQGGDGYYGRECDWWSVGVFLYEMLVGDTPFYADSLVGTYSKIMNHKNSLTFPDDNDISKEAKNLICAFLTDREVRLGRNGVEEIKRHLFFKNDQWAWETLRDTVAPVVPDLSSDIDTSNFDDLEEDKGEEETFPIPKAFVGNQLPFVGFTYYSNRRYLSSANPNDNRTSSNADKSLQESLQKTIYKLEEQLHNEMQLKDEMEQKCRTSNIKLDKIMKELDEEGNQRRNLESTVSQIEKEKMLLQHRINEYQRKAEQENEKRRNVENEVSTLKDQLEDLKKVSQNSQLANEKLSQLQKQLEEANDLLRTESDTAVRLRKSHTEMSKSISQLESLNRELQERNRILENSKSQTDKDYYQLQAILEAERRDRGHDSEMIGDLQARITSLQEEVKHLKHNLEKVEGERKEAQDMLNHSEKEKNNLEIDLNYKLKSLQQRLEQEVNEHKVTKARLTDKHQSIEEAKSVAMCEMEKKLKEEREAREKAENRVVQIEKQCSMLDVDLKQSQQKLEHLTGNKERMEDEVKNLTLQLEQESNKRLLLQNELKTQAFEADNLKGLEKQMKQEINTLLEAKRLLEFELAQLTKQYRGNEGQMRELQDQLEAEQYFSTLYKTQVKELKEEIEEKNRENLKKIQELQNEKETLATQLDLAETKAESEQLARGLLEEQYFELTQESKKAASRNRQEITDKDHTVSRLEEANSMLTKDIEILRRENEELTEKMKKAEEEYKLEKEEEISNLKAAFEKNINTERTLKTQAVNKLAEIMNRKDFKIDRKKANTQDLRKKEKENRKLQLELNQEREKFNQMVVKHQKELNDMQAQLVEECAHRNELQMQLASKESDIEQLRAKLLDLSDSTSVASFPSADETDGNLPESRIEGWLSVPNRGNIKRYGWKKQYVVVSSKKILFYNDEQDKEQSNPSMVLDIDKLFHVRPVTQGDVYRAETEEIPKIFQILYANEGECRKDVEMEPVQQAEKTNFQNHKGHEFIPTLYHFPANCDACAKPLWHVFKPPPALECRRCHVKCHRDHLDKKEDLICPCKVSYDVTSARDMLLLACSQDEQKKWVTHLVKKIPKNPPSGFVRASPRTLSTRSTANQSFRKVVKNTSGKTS
Rho-associated protein kinase 2, sequence (O75116 whole entry): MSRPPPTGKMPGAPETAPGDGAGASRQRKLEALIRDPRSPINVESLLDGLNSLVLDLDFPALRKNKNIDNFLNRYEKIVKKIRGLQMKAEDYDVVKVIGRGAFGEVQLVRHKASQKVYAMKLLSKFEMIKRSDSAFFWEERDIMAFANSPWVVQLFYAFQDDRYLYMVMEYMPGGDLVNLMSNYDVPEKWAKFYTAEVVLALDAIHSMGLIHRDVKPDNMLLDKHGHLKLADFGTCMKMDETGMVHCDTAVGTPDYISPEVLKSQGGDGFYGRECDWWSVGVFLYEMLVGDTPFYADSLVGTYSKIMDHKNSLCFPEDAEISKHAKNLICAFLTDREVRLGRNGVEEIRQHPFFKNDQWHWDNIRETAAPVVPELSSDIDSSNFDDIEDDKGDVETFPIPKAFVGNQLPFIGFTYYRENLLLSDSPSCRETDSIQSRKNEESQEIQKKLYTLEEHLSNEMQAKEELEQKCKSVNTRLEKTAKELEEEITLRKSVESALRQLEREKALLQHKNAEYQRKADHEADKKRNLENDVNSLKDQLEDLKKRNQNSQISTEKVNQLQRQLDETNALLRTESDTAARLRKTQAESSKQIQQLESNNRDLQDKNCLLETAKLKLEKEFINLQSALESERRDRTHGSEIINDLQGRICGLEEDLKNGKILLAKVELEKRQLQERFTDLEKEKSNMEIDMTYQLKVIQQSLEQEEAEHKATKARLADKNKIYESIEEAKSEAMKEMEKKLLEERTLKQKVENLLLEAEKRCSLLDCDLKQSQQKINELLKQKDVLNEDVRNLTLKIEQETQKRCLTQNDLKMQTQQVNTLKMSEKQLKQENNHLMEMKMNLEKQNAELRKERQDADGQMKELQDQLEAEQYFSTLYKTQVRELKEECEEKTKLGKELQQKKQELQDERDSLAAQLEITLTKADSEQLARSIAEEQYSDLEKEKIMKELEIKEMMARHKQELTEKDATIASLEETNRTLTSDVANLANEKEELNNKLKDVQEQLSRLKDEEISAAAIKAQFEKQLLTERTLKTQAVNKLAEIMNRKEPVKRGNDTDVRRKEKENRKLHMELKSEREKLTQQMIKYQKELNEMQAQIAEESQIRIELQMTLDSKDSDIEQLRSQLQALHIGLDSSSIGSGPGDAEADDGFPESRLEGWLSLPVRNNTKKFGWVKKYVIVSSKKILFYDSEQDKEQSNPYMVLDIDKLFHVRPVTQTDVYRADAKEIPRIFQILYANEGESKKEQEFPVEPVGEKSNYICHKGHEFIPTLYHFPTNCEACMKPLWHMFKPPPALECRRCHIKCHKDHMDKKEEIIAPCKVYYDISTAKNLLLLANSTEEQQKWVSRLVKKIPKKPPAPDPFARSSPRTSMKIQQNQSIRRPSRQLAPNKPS

| SMILES | IC50 [1] | IC50 [2] | Ratio IC50 (Homo sapiens) |
| --- | --- | --- | --- |
| O=C1N(Cc2ccccc2)CCN1c1ccc(-c2n[nH]c(=O)c3ccccc23)cc1 | > 2000 nM | 56 nM | – |
| O=C(Cc1ccc(-c2n[nH]c(=O)c3ccccc23)cc1)N1CCc2ccccc21 | 340 nM | 7 nM | – |
| O=C1C(c2ccc(-c3n[nH]c(=O)c4ccccc34)cc2)CCN1c1ccccc1 (centres undefined) | > 2000 nM | 370 nM | – |
| O=C1N(c2ccccc2)CCN1c1ccc(-c2n[nH]c(=O)c3ccccc23)cc1 | 240 nM | 5.2 nM | – |
| O=C1N(c2ccc(-c3n[nH]c(=O)c4ccccc34)cc2)CCN1c1cccnc1 | 200 nM | 19 nM | – |
| O=c1[nH]nc(-c2ccc(-n3ncn(Cc4ccccc4)c3=O)cc2)c2ccccc12 | > 2000 nM | 300 nM | – |
| O=C1C(Oc2cccc(OC(F)(F)F)c2)CCN1c1ccc(-c2n[nH]c(=O)c3ccccc23)cc1 (centres undefined) | 100 nM | 6.3 nM | – |
| O=C1C(Nc2cccc(OC(F)F)c2)CCN1c1ccc(-c2n[nH]c(=O)c3ccccc23)cc1 (stereo in doubt; 21) | 990 nM | 15 nM | – |
| CS(=O)(=O)c1cccc(NC2CCN(c3ccc(-c4n[nH]c(=O)c5ccccc45)cc3)C2=O)c1 (centres undefined) | 430 nM | 16 nM | – |
| CC(C)Oc1cccc(NC2CCN(c3ccc(-c4n[nH]c(=O)c5ccccc45)cc3)C2=O)c1 (centres undefined) | 380 nM | 18 nM | – |
| COc1cccc(NC2CCN(c3ccc(-c4n[nH]c(=O)c5ccccc45)cc3)C2=O)c1 (centres undefined) | 1050 nM | 23 nM | – |
| Cc1nc2ccc(NC3CCN(c4ccc(-c5n[nH]c(=O)c6ccccc56)cc4)C3=O)cc2s1 (centres undefined) | 115 nM | 7.4 nM | – |
| O=C1C(Nc2ccccc2)CCN1c1ccc(-c2n[nH]c(=O)c3ccccc23)cc1 (centres undefined) | 950 nM | 34 nM | – |
| O=C1C(Nc2cccc(OC(F)(F)F)c2)CCN1c1ccc(-c2n[nH]c(=O)c3ccccc23)cc1 (centres undefined) | 270 nM | 5.6 nM | – |
| O=C(Nc1ccc(-c2n[nH]c(=O)c3ccccc23)cc1)N1CCc2ccccc21 | – | 1 nM | 20 |
| O=C1C(NC2CCCC2)CCN1c1ccc(-c2n[nH]c(=O)c3ccccc23)cc1 (centres undefined) | > 2000 nM | 1770 nM | – |
| O=C1C(Nc2cccc(OC(F)F)c2)CCN1c1ccc(-c2n[nH]c(=O)c3ccccc23)cc1 (stereo in doubt; 22) | 200 nM | 2.5 nM | – |
| O=C1OC(c2ccccc2)CN1c1ccc(-c2n[nH]c(=O)c3ccccc23)cc1 (centres undefined) | 230 nM | 60 nM | – |
| O=C1C(Nc2cccc(OC(F)F)c2)CCN1c1ccc(-c2n[nH]c(=O)c3ccccc23)cc1 (racemic) | 330 nM | 2 nM | – |
| O=C1C(NCc2ccccc2)CCN1c1ccc(-c2n[nH]c(=O)c3ccccc23)cc1 (centres undefined) | > 2000 nM | 1400 nM | – |
| O=C1C(c2ccccc2)CCN1c1ccc(-c2n[nH]c(=O)c3ccccc23)cc1 (centres undefined) | > 2000 nM | 350 nM | – |
| O=C1CC(c2ccccc2)CN1c1ccc(-c2n[nH]c(=O)c3ccccc23)cc1 (centres undefined) | 1520 nM | 490 nM | – |

Source: ChEMBL document CHEMBL5257108, “Phthalazinone-based lactams and cyclic ureas as ROCK2 selective inhibitors” (Bioorg Med Chem Lett, 2023)
